Laboratory results reported in paper PMC9108036 (Biomedicine & Pharmacotherapy, 2022).

System: lentiviral pseudovirus with SARS-CoV-2 spike D614G
Assay type: cell-based

SMILES	maximum response (inhibition) [%]	inhibition of virus entry (in words)	IC50 [µM]
N=C(N)c1ccc2cc(OC(=O)c3ccc(N=C(N)N)cc3)ccc2c1 [Nafamostat]	50	–	–
CN(C)C(=O)COC(=O)Cc1ccc(OC(=O)c2ccc(NC(=N)N)cc2)cc1 [Camostat]	50	failed to inhibit virus entry sufficiently	–
Nc1nc(Cl)nc2c1ncn2[C@H]1C[C@H](O)[C@@H](CO)O1 [Cladribine]	–	–	7.74
CCCCC[C@H](O)/C=C/[C@H]1[C@H](O)CC(=O)[C@@H]1CCCCCCC(=O)O [Alprostadil]	–	–	7.42
O=c1[nH]cc(F)c(=O)[nH]1 [Fluorouracil]	–	–	7.01
CN(C)CCCN1c2ccccc2Sc2ccc(Cl)cc21 [Chlorpromazine]	–	–	9.63
CC(=O)O[C@@]12CO[C@@H]1C[C@H](O)[C@@]1(C)C(=O)[C@H](O)C3=C(C)[C@@H](OC(=O)[C@H](O)[C@@H](NC(=O)OC(C)(C)C)c4ccccc4)C[C@@](O)([C@@H](OC(=O)c4ccccc4)[C@H]21)C3(C)C [Docetaxel]	–	–	< 0.08
